Nine compounds from patent US11547679B2, “Mitoriboscins: mitochondrial-based therapeutics targeting cancer cells, bacteria and pathogenic yeast” (LUNELLA BIOTECH, INC., priority 2017, dated 2023) can be followed below.

≈ marks a conversion by molar mass, not a printed value.

Data set [1] relates to MCF7 cells. The data set is described as follows: Seahorse XF96 metabolic flux: oxygen consumption rate (OCR), ATP. The data set is classed as cell-based, human. The note with it: for rank order potency to reduce maximal respiration and ATP production: MCF7, top 10 hits; for mitochondrial oxygen-consumption: MCF7, 72 hours treatment. The source says: (§1) The present approach further involves methods of functional validation at step S105, during which a compound's function as a mitochondrial inhibitor may be confirmed. A number of methods may be used for functional validation, including, for example, metabolic flux analysis, mammosphere assays, viability assays, and antibiotic (anti-bacterial and/or anti-fungal) activity. For example, the inventors determined extracellular acidification rates (ECAR) and real-time oxygen consumption rates (OCR) for MCF7 cells using the Seahorse Extracellular Flux (XF96) analyzer (Seahorse Bioscience, MA, USA). MCF7 cells were maintained in DMEM supplemented with 10% FBS (fetal bovine serum), 2 mM GlutaMAX, and 1% Pen-Strep. 5,000 cells per well were seeded into XF96-well cell culture plates, and incubated overnight at 37° C. in a 5% CO2 humidified atmosphere. After 24 hours, cells were treated with selected compounds showing ATP-depletion without prominent cytotoxicity at various concentrations (or vehicle alone). After 72 hours of treatment, cells were washed in pre-warmed XF assay media (for OCR measurement, XF assay media was supplemented with 10 mM glucose, 1 mM Pyruvate, 2 mM L-glutamine and adjusted at pH 7.4). Cells were maintained in 175 μL/well of XF assay media at 37° C. in a non-CO2 incubator for 1 hour. During incubation, 25 μL of 80 mM glucose, 9 μM oligomycin, 1M 2-deoxyglucose (for ECAR measurement) and 25 μL of 10 μM oligomycin, 9 μM FCCP, 10 μM rotenone, 10 μM antimycin A (for OCR measurement) in XF assay media was loaded into the injection ports of the XFe-96 sensor cartridge. During the experiment, the instrument injected these inhibitors into the wells at a given time point, while ECAR/OCR was measured continuously. ECAR and OCR measurements were normalized by protein content (using the Sulphorhodamine B assay). Data sets were analyzed by XFe-96 software, using one-way ANOVA and Student's t-test calculations. All experiments were performed in triplicate, and results validated the mitochondrial inhibition effects of mitoriboscin compounds described herein. It should be appreciated that numerous methods are known for functional validation, and that persons of skill in the art may select one or more depending on the validation needs (e.g., other assays that measure or approximate mitochondrial function). The present approach involves methods of function validation of mitoriboscin compounds. For example, the inventors assessed functional validation of three candidates using the Seahorse Analyzer, which quantitatively measures oxygen consumption rate (OCR) and extracellular acidification rate (ECAR). OCR is a surrogate marker for OXPHOS and ECAR is a surrogate marker for glycolysis and L-lactate production.

Data set [2] concerns normal human fibroblasts (hTERT-BJ1 cells). Put plainly: Cell viability of normal fibroblasts. It counts as cell-based. As to conditions: 5 μM. As to the method: (§2) The present approach includes methods of confirming cell viability. Persons of skill in the art may select one or more methods for confirming cell viability suitable for the particular embodiment. The inventors initially used the Sulphorhodamine (SRB) assay, which is based on the measurement of cellular protein content. After treatment for 72 hours in 96-well plates, cells were fixed with 10% trichloroacetic acid (TCA) for 1 hour in the cold room, and were dried overnight at room temperature. Then, cells were incubated with SRB for 15 min, washed twice with 1% acetic acid, and air dried for at least 1 hour. Finally, the protein-bound dye was dissolved in a 10 mM Tris, pH 8.8 solution and read using the plate reader at 540-nm. Using the SRB assay, the inventors selected only the compounds depleting ATP levels without prominent cytotoxicity for further analysis. Prominent cytotoxicity was defined as fewer than 30% of cells still on the plate. Of course, embodiments employing other cell viability confirmation methodology may select compounds for further analysis based on other considerations as may be known in the art.
(§3) Based on this analysis, the inventors assessed the functional effects of the three candidates on overall viability in MCF7 cell monolayers and normal human fibroblasts (hTERT-BJ1 cells) (FIG. 6). […]

The subject of data set [3] is K. pneumoniae ATCC 13883. Put plainly: MIC by broth dilution method. The data set is classed as cell-based. As to conditions: K. pneumoniae ATCC 13883, 24 hours at 37° C. Here is the method: (§4) The minimal inhibitory concentration (MIC) of the antibacterial compounds may be determined using the broth dilution method, according to CLSI guidelines. Test compound solutions (or antibiotic solutions used as positive controls) were diluted, serially, with MHB medium. Then, the suspensions of the microorganisms, prepared from overnight cultures of bacteria in the MHB medium, at a concentration of 10^6 CFU/ml, were added to each dilution in a 1:1 ratio. McFarland standards were used as a reference to adjust the turbidity of microorganism suspensions. Growth (or lack thereof) of the microorganisms was determined after incubation for 24 hours at 37° C. by turbidimetry (wavelength of 600 nm). […] The susceptibility test by measurement of MIC was performed in triplicate and repeated three times independently.
A general note: In broth dilution the organism is exposed to a series of concentrations in liquid medium.

Data set [4] concerns Strept. pyogenes ATCC 19615. The data set is described as follows: MIC by broth dilution method. It counts as cell-based. The note with it: Strept. pyogenes ATCC 19615, 24 hours at 37° C. Here is the method:
as §4

Data set [5] relates to P. auriginosa ATCC 27853. Put plainly: MIC by broth dilution method. It counts as cell-based. As to conditions: P. auriginosa ATCC 27853, 24 hours at 37° C. Here is the method:
as §4

Data set [6] deals with MCF7 cell monolayers. The data set is described as follows: Cell viability of MCF7 cell monolayers. It counts as cell-based, human. Here is the method: as §2, §3
Data set [7] deals with MCF7 cells. The data set is described as follows: Seahorse XF96 metabolic flux: extracellular acidification rate (ECAR), glycolysis. It counts as cell-based, human.
From the text: as §1, with “ECAR and OCR measurements were normalized by protein content (using the Sulphorhodamine B assay).” left out, “All experiments were performed in triplicate, and results validated the mitochondrial inhibition effects of mitoriboscin compounds described herein. It should be appreciated that numerous methods are known for functional validation, and that persons of skill in the art may select one or more depending on the validation needs (e.g., other assays that measure or approximate mitochondrial function). The present approach involves methods of function validation of mitoriboscin compounds.” left out, “OCR is a surrogate marker for OXPHOS and ECAR is a surrogate marker for glycolysis and L-lactate production.” left out

In data set [8] the test system is MCF7 cells. The data set is described as follows: Mammosphere formation. The data set is classed as cell-based, human. The note with it: MCF7, 5 μM. An excerpt: The present approach involves methods of testing compounds, and in particular mitoriboscins, for anti-cancer properties. As discussed above, vHTS and computational chemistry may be used to identify candidate mitochondrial inhibitors. Those candidates may be tested for specific anti-cancer properties. For examples, the inventors compared seven candidate compounds in parallel for their ability to inhibit mammosphere formation in MCF7 cells. […] For example, 23/G4 (Group 1) reduced mammosphere formation by 50% at this concentration. Similarly, 24/F9 (Group 2) and 24/D4 (Group 3), both reduced mammosphere formation by ˜90%.

The test system of data set [9] is MRSA ATCC 43300. Put plainly: MIC by broth dilution method. It counts as cell-based, Methicillin-resistant Staphylococcus aureus. Here is the method:
as §4, with “nm). MIC 50 and MIC 99 are defined as the minimum inhibitory concentration of the compound required for 50% and 99% inhibition of bacterial growth.” for “nm).”, “independently. Statistical significance was determined using the Student's t-test and values of less than 0.05 were considered significant.” for “independently.”

As to `OC1C(NCc2ccccc2)CCCC1Oc1ccccc1Oc1cccc(F)c1` (centres unmarked) [23/E9], in [1] (FIG. 10), the “rank order potency to reduce maximal respiration and ATP production” value is reported as “top 6”.
Take `OC1C(NCc2ccccc2)CCCC1Oc1ccccc1Oc1ccc(Cl)cc1` (centres unmarked) [23/G4]: in data set [2], the “effect on viability of hTERT-BJ1 cells” value was “no effect”. Also, the “MIC 50%” value worked out at 16 µg/mL (≈ 37.7 µM) in data set [3], 4 µg/mL (≈ 9.44 µM) in data set [4] and 16 µg/mL (≈ 37.7 µM) in data set [5]. The “MIC 99%” value in [3] was 32 µg/mL (≈ 75.5 µM); in [4], 8 µg/mL (≈ 18.9 µM); in [5] it was 32 µg/mL (≈ 75.5 µM). Besides, the “effect on overall cell viability of MCF7 monolayers” value in [6] (500 nM and 2.5 μM) is “little or no effect”. For the same compound, in data set [6] (5 μM), the “reduction of viability of MCF7 cells” value was found to be 70%. The “increase in glycolysis rates” value in data set [7] was “more than 1.5 fold”. For the same compound, the “reduction of mammosphere formation” value in data set [8] stood at 50%. Besides, the “reduction of ATP levels” value is listed as greater than 50% in data set [1] (MCF7, 500 nM) and roughly 75% in data set [1] (MCF7, 2.5 μM). Besides, in data set [1] (MCF7, 5 μM, FIG. 10), the “reduction in ATP levels” value is reported as “greater than 75%”. The “mitochondrial oxygen-consumption” value in [1] was “dose-dependently inhibited”. For the same compound, the “rank order potency to reduce maximal respiration and ATP production” value in data set [1] (FIG. 10) is given as “top 6”. In addition, the “sensitivity of MRSA” value in [9] is given as “sensitive”.
`CCCc1ccc(OCc2ccccc2)c(CN2CCC3(CC2)CC(N(C)C)C(C)(O)CO3)c1` (centres unmarked) [24/D4]: the “MIC 50%” value in data set [3], in data set [4] and in data set [5] was 16 µg/mL (≈ 34.3 µM) throughout. Besides, the “MIC 99%” value in data set [3], in [4] and in data set [5] was 32 µg/mL (≈ 68.6 µM) throughout. For the same compound, the “effect on glycolysis” value in data set [7] is “suppressed”. The “reduction of mammosphere formation” value in [8] is reported as roughly 90%. Moreover, the “mitochondrial oxygen-consumption” value in data set [1] is “dose-dependently inhibited”. For the same compound, the “sensitivity of MRSA” value in data set [9] is reported as “sensitive”.
`CN1CCN(C2CCN(Cc3cc(C(C)(C)C)ccc3OCc3ccccc3)CCC2O)CC1` (centres unmarked) [24/F9]: the “MIC 50%” value in [3] was 32 µg/mL (≈ 68.7 µM); in data set [4], 32 µg/mL (≈ 68.7 µM); in data set [5] it was greater than 32 µg/mL. For the same compound, the “MIC 99%” value in data set [3] is 64 µg/mL (≈ 137 µM); in data set [4] it was 64 µg/mL (≈ 137 µM); in data set [5], greater than 64 µg/mL. For the same compound, the “effect on glycolysis” value in [7] is reported as “suppressed”. Also, in data set [8], the “reduction of mammosphere formation” value is reported as roughly 90%. Also, the “mitochondrial oxygen-consumption” value in [1] is “dose-dependently inhibited”. Also, the “rank order potency to reduce maximal respiration and ATP production” value in data set [1] (FIG. 10) is on record as “top 6”.
As for `CN1CCCN(C2CCN(Cc3cc(Cl)ccc3OCc3ccccc3)CCC2O)CC1` (centres unmarked) [24/H6], the “rank order potency to reduce maximal respiration and ATP production” value in data set [1] (FIG. 10) is “top 6”.
`CN(C)C1CC2(CCN(Cc3cc(Cl)ccc3OCc3ccccc3)CC2)OCC1(C)O` (centres unmarked) [24/H9]: in [1] (FIG. 10), the “rank order potency to reduce maximal respiration and ATP production” value is on record as “top 6”.
Turning to `CN(C)Cc1cccc(C2CCCN2Cc2ccccc2OCc2cccc(F)c2)n1` (centres unmarked) [25/B3], the “rank order potency to reduce maximal respiration and ATP production” value in data set [1] (FIG. 10) is “top 6”.
Regarding `CC1(C)S[C@@H]2[C@H](NC(=O)[C@H](N)c3ccc(O)cc3)C(=O)N2[C@H]1C(=O)O` [AMOXICILLIN, reference compound], the “sensitivity of MRSA” value in [9] was “resistant”.
In data set [5], `C[C@H]1c2cccc(O)c2C(=O)C2=C(O)[C@]3(O)C(=O)C(C(N)=O)=C(O)[C@@H](N(C)C)[C@@H]3[C@@H](O)[C@@H]21` [DOXYCYCLINE, reference compound] gave an MIC50 of 1 µg/mL (≈ 2.25 µM) and an MIC99 of 2 µg/mL (≈ 4.5 µM).

A word on the MIC50: it is the lowest concentration that inhibits either 50% of growth or 50% of the strains tested, depending on the study. Read a high MIC50 as lower susceptibility. A word on the MIC99: it is the lowest concentration that inhibits either 99% of growth or 99% of the strains tested, depending on the study. A higher MIC99 goes with lower susceptibility.
